Measurements published in patent US20240041951A1, “METHOD FOR IMPROVING PRODUCTIVITY IN LIVESTOCK AND/OR POULTRY AND METHOD FOR IMPROVING INTESTINAL FLORA IN LIVESTOCK AND/OR POULTRY” (Hayashibara Co., Ltd., priority 2020, published 2024).
Where two headings read alike, the source gives them in different places. Marks after values point to notes of the source that are not given here.

Legend:
Type in all cases: in vivo, male Chunky broiler chickens
[1] = tested on: bacteria belonging to the genus Lactobacillus; assay: Intestinal flora: number of Lactobacillus cells in ileum content of reared broiler chickens; details: ileum content at 24 days old
[2] = tested on: Welch bacillus (Clostridium perfringens); details: ileum content at 24 days old, average of stocking densities 11 and 14 individuals/m^2, * = significant vs control (p<0.05)
[3] = Rearing test: body weight, weight gain, feed intake and feed conversion ratio; details: for Feed conversion ratio: feed intake/weight gain
[4] = Rearing test: uniformity of body weight (coefficient of variation); details: body weights of individual chickens at 42 days old; (standard deviation/average)×100
[5] = from 0 day old to 42 days old (entire rearing period)
[6] = from 0 day old to 42 days old (entire rearing period), listed as trehalose group
[7] = from 35 days old to 42 days old (finishing period)
[8] = from 35 days old to 42 days old (finishing period), listed as trehalose group

Q: With `OC[C@H]1O[C@H](O[C@H]2O[C@H](CO)[C@@H](O)[C@H](O)[C@H]2O)[C@H](O)[C@@H](O)[C@@H]1O` [Trehalose group, α,α-trehalose] as the compound, how does the “Number of microbial cells, Lactobacillus spp.” value [1] read?
A: 10.2 × 10^7 cells/g

Q: And the “Number of microbial cells, Lactobacillus spp.” value ([1]; listed as trehalose group)?
A: 10.2×10^7 cells/g

Q: What about the “Number of microbial cells, Clostridium perfringens” value [2] of the same compound?
A: 0.37 × 10^2* cells/g

Q: And the “Number of microbial cells, Clostridium perfringens” value ([2]; listed as trehalose group)?
A: 0.37×10^2 cells/g

Q: What about the Average body weight ([3]; 0 day old (start of rearing)) of the same compound?
A: 41 g

Q: And the Average body weight ([3]; 35 days old)?
A: 2621 g

Q: And the Average body weight ([3]; 42 days old)?
A: 3251 g

Q: And the Feed intake ([3]; from 0 day old to 35 days old)?
A: 3458 g

Q: What about the Weight gain ([3]; from 0 day old to 35 days old) of the same compound?
A: 2580 g

Q: What about the Feed conversion ratio ([3]; from 0 day old to 35 days old) of the same compound?
A: 1.340

Q: And the Feed intake [3, 5]?
A: 4756 g

Q: And the Weight gain [3, 5]?
A: 3210* g

Q: And the Feed conversion ratio [3, 5]?
A: 1.482*

Q: And the Feed conversion ratio [3, 6]?
A: 1.482

Q: And the Weight gain [3, 6]?
A: 3210 g

Q: And the Feed intake [3, 7]?
A: 1320 g

Q: What about the Weight gain [3, 7] of the same compound?
A: 630* g

Q: And the Feed conversion ratio [3, 7]?
A: 2.095*

Q: What about the Feed conversion ratio [3, 8] of the same compound?
A: 2.095

Q: And the Weight gain [3, 8]?
A: 630 g

Q: What about the Coefficient of variation [4] of the same compound?
A: 7.9%
